Patent publication US4228160A (priority 1978, dated 1980)
In brackets after ≈: the same amount, converted by molar mass. Read-outs that look alike come from different tables or passages of the source.

Assays:
[1] = cited from earlier work
ovariectomized rat = test: Pregnancy protective activity in the ovariectomized rat; assay type: in vivo, rat (CFY strain); settings: per os
Source text: Test animal: female rat of an average weight of 308 g., derived from 18 CFY strain
The ovary of the animals was removed on the 17th day of pregnancy and the animals were placed individually in cages.
6 animals were used as control.
On the 19th day and 20th day in the morning of the pregnancy the treatment was repeated.

rat [2] = assay type: in vivo, rat (Long-Evans strain)
Protocol: As a reference compound pure Indomethacin is used.
Subacute toxicity test was carried out in male and female animals derived from Long-Evans strain, 10--10 animals were treated for each test compound and both for female and male animals. At the beginning of the test the animals were 7 week old, of an average bodyweight of 140-160 g. The animals were kept at constant temperature (22°-24° C.) and under constant relative humidity (45-50%). During the treatment the animals were on a standard diet and drank water ad libitum.
The subacute toxicity test corresponds to a 4 weeks' treatment period. The animals were treated daily at the same time in the morning. The complex of a molar ratio 1:1 and the reference substance were administered in the form of a suspension in 1% methyl cellulose through an oesophaged sound. The animals of the control group get 1% methyl cellulose per os. The weight increase and the clinical state of the animals were registered during the treatment every week.
1. Control: 1% methyl cellulose, 0.2 ml./100 g. per os
The animals were treated for 28 days. On the 29th day the living animals were exterminated with ether and the stomach and the duodenum were prepared. Also the stomach and duodenum of the animals perished during the treatment were prepared.
In each case the mucous membrane of the stomach, bile and intestine were examined macroscopically and the number of the eventual ulcers and erosions was determined.

[3] = Solubility tests at different pH; assay type: physicochemical; settings: pH=2
[4] = Stability in solubility test (thin layer chromatography); assay type: physicochemical; settings: under the conditions of the solubility tests
[5] = aqueous solution, cited from earlier work
in vivo = test: in vivo; set-up: species or system rat (CFY strain); settings: rat, in vivo, po, 5 mg./kg. p.o.
Protocol: (§1) Subacute toxicity test was carried out in male and female animals derived from CFY strain and 10--10 animals were treated for each substance and for male and female rats each.
(§2) At the beginning of the investigation the animals were 7 weeks old and weighed 150-170 g. The animals were kept at a constant temperature (22°-24° C.) and under constant relative humidity (45-50%). During treatment the animals were on a standard diet and drank water ad libitum.
(§3) The animals were treated daily at the same time of the day, in the morning. The test compound and the reference substance were administered in the form of a suspension prepared with 1% methyl cellulose through an oesophagial sound. The animals of the control group obtained 1% methyl cellulose per os. The weight increase of the animals and their clinical states were registered during the treatment every week.
(§4) 1. Control: 1% methyl cellulose suspension 0.2 ml./100 g. per os;
(§5) Investigation: the animals were treated for 28 days.

rat [6] = test: in vivo; set-up: species or system rat (CFY strain)
Protocol: as §1, §2, §3, §4, §5

inflammation = test: Speed of onset and duration of antiinflammatory activity, Carrageenin feet inflammation; assay type: in vivo, rat (female, strain CFY); settings: simultaneous administration with Carrageenin (FIG. 5)
Protocol: The test compound, the reference substance, the animals, the treatment, doses, investigation are all the same as described above. The differences can be found below.
In this series of tests the following investigations were carried out:
2. Carrageenin was given 1, 2 and 3 hours after the administration of the antiinflammatory agent and the results were evaluated after 3 hours. The animals were exterminated with ether and the weight of the separated untreated feet and feet treated with Carrageenin was measured. The feet were separated above the metacarpus.
The weight difference of the untreated and treated feet in the same animal was calculated. […] The antiinflammatory activity was calculated in percent and the results are plotted in FIGS. 4 and 5.

[7] = Diffusion test through semipermeable membrane; assay type: physicochemical
Source text: The two sides of a diffusion cell are separated by a semipermeable membrane.

[8] = 16 mg./kg. 1:1 complex or 5 mg./kg. Indomethacin p.o., control 0/10
[9] = 28 days, 16 mg./kg 1:1 complex or 5 mg./kg. Indomethacin p.o., control 0/10
[10] = number related to treated animals, 28 days p.o., 40.3 mg./kg. CD-Ind or 5.0 mg./kg. Ind., control 0/10

Which original solubility ([1]; 35° C., aqueous, without cyclodextrin) does the source give for COc1ccc2c(c1)c(CC(=O)O)c(C)n2C(=O)c1ccc(Cl)cc1 [Indomethacin, 1-(p-Chloro-benzoyl)-5-methoxy-2-methyl-indol-3-acetic acid] here?
Its original solubility is 350 µM.

What about the “solubility increased by cyclodextrin” value ([1]; aqueous solution with cyclodextrin) of the same molecule?
The value was 980 µM (≈ 351 µg/mL).

And the solubility increase ([1]; with cyclodextrin vs original)?
Its solubility increase is 2.8 times.

And the “foetus retention compared with the control” value (ovariectomized rat)?
The value was “significantly increased the percentage of the foetus retention”.

And the foeti left alive (ovariectomized rat; 1.25 mg./kg. Indomethacin on 18th day, repeated 19th and 20th day, dissected 21st day, control 16.1%)?
Its foeti left alive is 58.8%.

What about the “animals with ulcers, female” value (rat [2]; 5 mg./kg.) of the same molecule?
Its value is 70%.

What about the “animals with ulcers, male” value (rat [2]; 5 mg./kg.) of the same molecule?
The value was 80%.

What about the “Lethality, 7th day, female” value (rat [2]; [8]) of the same molecule?
Its value is 1/10.

And the “Lethality, 7th day, male” value (rat [2]; [8])?
Its value is 4/10.

And the “Lethality, 14th day, female” value (rat [2]; [8])?
Its value is 2/10.

What about the “Lethality, 14th day, male” value (rat [2]; [8]) of the same molecule?
The value was 4/10.

And the “Lethality, 21st day, female” value (rat [2]; [8])?
The value was 3/10.

What about the “Lethality, 21st day, male” value (rat [2]; [8]) of the same molecule?
Its value is 5/10.

And the “Lethality, 28th day, female” value (rat [2]; [8])?
Its value is 6/10.

And the “Lethality, 28th day, male” value (rat [2]; [8])?
The value was 6/10.

And the “ulcer, female” value (rat [2]; [9])?
Its value is 7/10.

And the “ulcer, male” value (rat [2]; [9])?
The value was 8/10.

What about the “erosion, female” value (rat [2]; 28 days, 16 mg./kg 1:1 complex or 5 mg./kg. Indomethacin p.o., control 2/10) of the same molecule?
Its value is 10/10.

And the “erosion, male” value (rat [2]; 28 days, 16 mg./kg 1:1 complex or 5 mg./kg. Indomethacin p.o., control 3/10)?
The value was 10/10.

What about the clinical symptoms (rat [2]; from third day, 5 mg./kg. Indomethacin or 16 mg./kg. 1:1 complex) of the same molecule?
The clinical symptoms was “bradypnoe and depression”.

And the solubility [3]?
The solubility was “substantially insoluble”.

And the “decomposition of Indomethacin” value [4]?
The value was “not decomposed”.

And the hydrolysis ([5]; in the presence of glucose)?
Its hydrolysis is “hydrolyses rapidly”.

What about the hydrolysis ([5]; in the presence of α-cyclodextrin) of the same molecule?
Its hydrolysis is “slowly”.

And the hydrolysis ([5]; in the presence of β-cyclodextrin)?
The hydrolysis was “inhibits hydrolysis”.

What about the mortality at 336 h (in vivo; by the 14th day, read-out: dead animals, male) of the same molecule?
Its mortality at 336 h is 80%.

What about the mortality at 504 h (in vivo; by the 21st day, read-out: dead animals, female) of the same molecule?
Its mortality at 504 h is 60%.

What about the “erosion, female” value (rat [6]; [10]) of the same molecule?
Its value is 7/10.

And the “ulcer, female” value (rat [6]; [10])?
The value was 6/10.

And the “ulcer, male” value (rat [6]; [10])?
Its value is 7/10.

What about the “erosion, male” value (rat [6]; number related to treated animals, 28 days p.o., 40.3 mg./kg. CD-Ind or 5.0 mg./kg. Ind., control 1/10) of the same molecule?
The value was 9/10.

And the Average body weight (rat [6]; week 0, control 152.5)?
Its Average body weight is 164.5 g.

What about the Average body weight (rat [6]; week 0, control 154.5) of the same molecule?
Its Average body weight is 161.5 g.

What about the Average body weight (rat [6]; week 1, control 183.0) of the same molecule?
The Average body weight was 182.0 g.

What about the Average body weight (rat [6]; week 1, control 196.5) of the same molecule?
The Average body weight was 210.7 g.

What about the Average body weight (rat [6]; week 2, control 209.0) of the same molecule?
The Average body weight was 177.5 g.

And the Average body weight (rat [6]; week 2, control 240.5)?
The Average body weight was 212.5 g.

And the Average body weight (rat [6]; week 3, control 222.0)?
Its Average body weight is 206.5 g.

What about the Average body weight (rat [6]; week 3, control 276.5) of the same molecule?
Its Average body weight is 287.5 g.

And the Average body weight (rat [6]; week 4, control 241.0)?
Its Average body weight is 221.2 g.

And the Average body weight (rat [6]; week 4, control 300.5)?
The Average body weight was 320.0 g.

What about the “antiinflammatory activity 6 hours after treatment” value (inflammation) of the same molecule?
The value was “inflammation increases after 6 hours”.

And the time to equilibrium ([7]; pure buffer on other side)?
The time to equilibrium was 4 h.

And the “distribution of Indomethacin” value ([7]; β-cyclodextrin buffer solution on other side, 4 hours)?
The value was “more Indomethacin on the β-cyclodextrin side after 4 hours, than on the Indomethacin side”.
